Assay results: paper PMC11984924, “Dipeptidic Phosphonates: Potent Inhibitors of Pseudomonas aeruginosa Elastase B Showing Efficacy in a Murine Keratitis Model” (Advanced Science, 2025)

Experiments:
[1] = Metabolic stability in human liver S9 fraction; assay type: in vitro ADME; conditions: human liver S9, 1 µM
Experimental: (§1) page 57: 3. Biological evaluation 3.1 In vitro inhibition assays […] MMPs, TACE). […] inhibitor screening kits were purchased from Sigma-Aldrich (Saint Louis, MO). MMPs along with the SensoLyte 520 Generic MMP Activity Kit Fluorimetric were purchased from AnaSpec (Fremont, CA, USA). The assays were performed according to the guidelines of the respective manufacturer. Fluorescence signals were measured using a CLARIOstar plate reader (BMG Labtech, Ortenberg, Germany). 3.2 Kinetic solubility […] well were transferred into another 96-well plate and mixed with 148.5 µL of PBS. Plates were shaken for 5 min at 600 rpm at room temperature (r.t.), and the absorbance at 620 nm was measured. Absorbance values were normalized by blank subtraction and plotted using GraphPad Prism 8.4.2 (GraphPad Software, San Diego, CA, USA). Solubility (S) was […] 3.3 Lipophilicity determination LogD7.4 was analyzed using an HPLC−based method. The UV retention time of reference […] Linear […] Analysis was performed using a Vanquish Flex HPLC system with variable wavelength detector (Thermo Fisher, Dreieich, Germany) with the following conditions: EC150/2 NUCLEODUR C18 Pyramid column, 5 μM (Macherey Nagel, Düren, Germany); eluent A: 50 mM NH4OAc pH 7.4, eluent B: acetonitrile, and flow: 0.6 mL/min. […] 3.4 Metabolic stability in liver S9 fractions For the evaluation of combined phase I and phase II metabolic stability, the compound (1 μM) was incubated with 1 mg/mL pooled mouse liver S9 fraction (C57BL/6, Xenotech, Kansas Cit y, USA) or human liver S9 fraction (Corning, USA), 2 mM NADPH, 1 mM UDPGA, 10 mM MgCl2, 5 mM GSH and 0.1 mM PAPS at 37 °C for 120 min. The metabolic stability of testosterone, verapamil and ketoconazole were determined in parallel to confirm the enzymatic activity of S56 page 58: mouse S9 fractions, for human S9 testosterone, diclofenac and propranolol were used. The incubation was stopped after defined time points by precipitation of aliquots of S9 enzymes […] Samples were stored on ice until the end of the incubation and precipitated protein was removed by centrifugation (15 min, 4 °C, 4,000 g). Concentration of the remaining test compound at the different time points was analyzed by HPLC-MS/MS (TSQ Quantum Access MAX, Thermo Fisher, Dreieich, Germany) and used to determine half -life (t1/2) and intrinsic clearance (Clint). Species profiling was conducted as above using 0.5 mg/mL pooled mouse, rat or minipig liver microsomes (Xenotech, Kansas City, USA) with 2 mM NADPH and 10 mM MgCl2 and testosterone, verapamil and ketoconazole as reference compounds. 3.5 Plasma stability To determine stability in plasma, the compound (1 µM) was incubated with pooled CD -1 mouse/human/Wistar rat or Göttingen minipig plasma (Neo Biotech, Nanterre, France). Samples were taken by mixing aliquots with 4 volumes of acetonitrile containing internal standard (125 nM diphenhydramine). The plasma stability of procain, propantheline and diltiazem were determined in parallel to confirm the enzymatic activity. Samples were stored on ice until the end of the incubation and precipitated protein was removed by centrifugation (15 min, 4 °C, 4,000 g, two centrifugation steps). Concentration of the remaining test compound at the different time points was analyzed by HPLC-MS/MS (TSQ Quantum Access MAX, Thermo Fisher, Dreieich, Germany) and used to determine half-life (t1/2). Table S2: Additional in vitro ADMET data for selected dipeptides. n.d.: not determined. […] Compound Solubility PBS pH 7.4 [µM] Mouse Human Mouse Human […] S57

TACE (ADAM17) = target: T1, TACE (ADAM17) (Homo sapiens, UniProt P78536); test: TACE (ADAM17) inhibition (off-target); assay type: biochemical; conditions: read-out: TACE (ADAM17) % inhibition at 100 µM
T1 construct: purchased Sigma-Aldrich (Saint Louis, MO)
T1 sequence (P78536 215-824): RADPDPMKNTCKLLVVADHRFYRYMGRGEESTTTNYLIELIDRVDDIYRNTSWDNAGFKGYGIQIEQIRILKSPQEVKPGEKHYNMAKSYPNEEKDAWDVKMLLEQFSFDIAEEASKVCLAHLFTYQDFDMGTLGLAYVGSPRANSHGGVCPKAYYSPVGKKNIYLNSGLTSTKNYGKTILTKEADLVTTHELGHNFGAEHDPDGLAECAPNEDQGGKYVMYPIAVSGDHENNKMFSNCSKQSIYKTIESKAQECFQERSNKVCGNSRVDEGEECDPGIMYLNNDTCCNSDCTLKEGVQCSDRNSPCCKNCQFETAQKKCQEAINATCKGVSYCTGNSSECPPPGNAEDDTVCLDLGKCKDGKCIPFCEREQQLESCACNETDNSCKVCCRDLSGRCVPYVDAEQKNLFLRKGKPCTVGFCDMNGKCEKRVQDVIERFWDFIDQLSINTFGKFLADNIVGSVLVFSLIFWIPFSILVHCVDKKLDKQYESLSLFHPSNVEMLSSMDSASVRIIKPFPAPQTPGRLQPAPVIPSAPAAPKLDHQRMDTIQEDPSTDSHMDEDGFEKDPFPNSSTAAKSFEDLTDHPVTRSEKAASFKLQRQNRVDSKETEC
Experimental: 3.1 In vitro inhibition assays
LasB was expressed and purified as described previously.[3] In vitro inhibition assays (LasB, MMPs, TACE). All in vitro inhibition assays were performed as described previously.[10] TACE inhibitor screening kits were purchased from Sigma-Aldrich (Saint Louis, MO). MMPs along with the SensoLyte 520 Generic MMP Activity Kit Fluorimetric were purchased from AnaSpec (Fremont, CA, USA). The assays were performed according to the guidelines of the respective manufacturer. Fluorescence signals were measured using a CLARIOstar plate reader (BMG Labtech, Ortenberg, Germany). […]
3.8 Test against zinc metalloproteases MMP1–3 and TACE (ADAM17), and testing of
We selected a panel of human off -targets, including three human matrix metalloproteases (MMP-1, -2 and -3) and TACE (ADAM-17). These assays were performed as described previously.[3] The TACE inhibitor screening kit was purchased from Sigma -Aldrich (Saint Louis, MO). MMPs along with the SensoLyte 520 Generic MMP Activity Kit Fluorimetric were purchased from AnaSpec (Fremont, CA, USA). The assays were performed according to the guidelines of the respective manufacturer. Fluorescence signals were measured using a CLARIOstar plate reader (BMG Labtech, Ortenberg, Germany). […]
Table S6: Percent (%) inhibition of three MMPs (1 –3) and TACE (ADAM17) in presence of selected LasB inhibitors at 100 µM. Results are means and SD of at least two independent experiments. […]
Compound [% inhibition at [% inhibition at [% inhibition at [% inhibition at 100

[2] = Metabolic stability in mouse liver S9 fraction; assay type: in vitro ADME; conditions: C57BL/6, liver S9 fraction; mouse liver S9, 1 µM
Experimental: as §1

Plasma stability, human = assay type: in vitro ADME; conditions: read-out: Plasma t1/2 Human
Experimental: (§2) To determine stability in plasma, the compound (1 µM) was incubated with pooled CD -1 […]
(§3) mouse/human/Wistar rat or Göttingen minipig plasma (Neo Biotech, Nanterre, France).
(§4) Samples were taken by mixing aliquots with 4 volumes of acetonitrile containing internal […]
(§5) standard (125 nM diphenhydramine). The plasma stability of procain, propantheline and diltiazem were determined in parallel to confirm the enzymatic activity. Samples were stored […]
(§6) on ice until the end of the incubation and precipitated protein was removed by centrifugation […]
(§7) (15 min, 4 °C, 4,000 g, two centrifugation steps). Concentration of the remaining test compound at the different time points was analyzed by HPLC-MS/MS (TSQ Quantum Access MAX, […]
(§8) Thermo Fisher, Dreieich, Germany) and used to determine half-life (t1/2).
(§9) Table S2: Additional in vitro ADMET data for selected dipeptides. n.d.: not determined.
(§10) Kinetic Liver S9 Clint [µL/mg/min] Plasma t1/2 [min] LogD7.4 […]
(§11) pH 7.4 [µM] Mouse Human Mouse Human

Plasma stability, mouse = assay type: in vitro ADME; conditions: CD-1, read-out: Plasma t1/2 Mouse
Experimental: as §2, §3, §4, §5, §6, §7, §8, §9, §10, §11

SMILES | microsomal CLint at 1 µM [1] [µL/min/mg] | inhibition at 100 µM (TACE (ADAM17)) [%] | microsomal CLint at 1 µM [2] [µL/min/mg] | half-life at 1 µM (Plasma stability, human) [h] | half-life at 1 µM (Plasma stability, mouse) [h]
CC(C)CC(C(=O)N[C@H](C(=O)Nc1ccc(Cl)c(Cl)c1)C(C)C)P(=O)(O)O (stereo partly drawn) [compound 9] | < 5.8 | < 10 | < 5.8 | > 2.5 | > 2.5
CC(C)C[C@H](C(=O)N[C@H](C(=O)Nc1ccc(-n2ccnc2)cc1)C(C)C)P(=O)(O)O [(R)‐36] | < 5.8 | < 10 | < 5.8 | > 2.5 | > 2.5
CC(C)CC(C(=O)N[C@H](C(=O)Nc1ccc(Cl)c(Cl)c1)C1CCC1)P(=O)(O)O (stereo partly drawn) [compound 13] | < 5.8 | < 10 | < 5.8 | > 2.5 | > 2.5
CC(=O)c1ccc(NC(=O)[C@@H](NC(=O)C(CC(C)C)P(=O)(O)O)C(C)C)cc1 (stereo partly drawn) [compound 30] | < 5.8 | 13 ± 4 | < 5.8 | > 2.5 | > 2.5
CC(C)CC(C(=O)N[C@H](C(=O)Nc1ccc(Cl)c(Cl)c1)C1CCCCC1)P(=O)(O)O (stereo partly drawn) [compound 14] | < 5.8 | < 10 | < 5.8 | > 2.5 | > 2.5
CC(=O)c1ccc(NC(=O)[C@@H](NC(=O)[C@@H](CC(C)C)P(=O)(O)O)C(C)C)cc1 [(R)‐30] | < 5.8 | 13 ± 2 | < 5.8 | > 2.5 | > 2.5
